Target: T1, human Fatty Acid Synthase (Homo sapiens, UniProt P49327)
T1 construct: made in house
Test: Human FAS enzyme assay (decrease in NADPH fluorescence)
Assay type: biochemical
Conditions: for inhibition at 100 µM: % inhibition at a concentration of 100 micromolar; for IC50s in the range of about 0.001 μM to about 30 μM: compounds excluded from the claims by proviso
Method in brief: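 Readout: decrease in NADPH fluorescence (340 nm ex, 460 nm em) after 60 min at RT, background-subtracted against a read taken before substrate. Substrate mix contained 500 μM malonyl-CoA and 150 μM acetyl-CoA. It was added after 15 min enzyme (0.4 μg in-house human FAS)–compound–NADPH preincubation in Tris pH 7.5 buffer; % inhibition was fitted to IC50.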

T1 sequence (P49327 whole entry): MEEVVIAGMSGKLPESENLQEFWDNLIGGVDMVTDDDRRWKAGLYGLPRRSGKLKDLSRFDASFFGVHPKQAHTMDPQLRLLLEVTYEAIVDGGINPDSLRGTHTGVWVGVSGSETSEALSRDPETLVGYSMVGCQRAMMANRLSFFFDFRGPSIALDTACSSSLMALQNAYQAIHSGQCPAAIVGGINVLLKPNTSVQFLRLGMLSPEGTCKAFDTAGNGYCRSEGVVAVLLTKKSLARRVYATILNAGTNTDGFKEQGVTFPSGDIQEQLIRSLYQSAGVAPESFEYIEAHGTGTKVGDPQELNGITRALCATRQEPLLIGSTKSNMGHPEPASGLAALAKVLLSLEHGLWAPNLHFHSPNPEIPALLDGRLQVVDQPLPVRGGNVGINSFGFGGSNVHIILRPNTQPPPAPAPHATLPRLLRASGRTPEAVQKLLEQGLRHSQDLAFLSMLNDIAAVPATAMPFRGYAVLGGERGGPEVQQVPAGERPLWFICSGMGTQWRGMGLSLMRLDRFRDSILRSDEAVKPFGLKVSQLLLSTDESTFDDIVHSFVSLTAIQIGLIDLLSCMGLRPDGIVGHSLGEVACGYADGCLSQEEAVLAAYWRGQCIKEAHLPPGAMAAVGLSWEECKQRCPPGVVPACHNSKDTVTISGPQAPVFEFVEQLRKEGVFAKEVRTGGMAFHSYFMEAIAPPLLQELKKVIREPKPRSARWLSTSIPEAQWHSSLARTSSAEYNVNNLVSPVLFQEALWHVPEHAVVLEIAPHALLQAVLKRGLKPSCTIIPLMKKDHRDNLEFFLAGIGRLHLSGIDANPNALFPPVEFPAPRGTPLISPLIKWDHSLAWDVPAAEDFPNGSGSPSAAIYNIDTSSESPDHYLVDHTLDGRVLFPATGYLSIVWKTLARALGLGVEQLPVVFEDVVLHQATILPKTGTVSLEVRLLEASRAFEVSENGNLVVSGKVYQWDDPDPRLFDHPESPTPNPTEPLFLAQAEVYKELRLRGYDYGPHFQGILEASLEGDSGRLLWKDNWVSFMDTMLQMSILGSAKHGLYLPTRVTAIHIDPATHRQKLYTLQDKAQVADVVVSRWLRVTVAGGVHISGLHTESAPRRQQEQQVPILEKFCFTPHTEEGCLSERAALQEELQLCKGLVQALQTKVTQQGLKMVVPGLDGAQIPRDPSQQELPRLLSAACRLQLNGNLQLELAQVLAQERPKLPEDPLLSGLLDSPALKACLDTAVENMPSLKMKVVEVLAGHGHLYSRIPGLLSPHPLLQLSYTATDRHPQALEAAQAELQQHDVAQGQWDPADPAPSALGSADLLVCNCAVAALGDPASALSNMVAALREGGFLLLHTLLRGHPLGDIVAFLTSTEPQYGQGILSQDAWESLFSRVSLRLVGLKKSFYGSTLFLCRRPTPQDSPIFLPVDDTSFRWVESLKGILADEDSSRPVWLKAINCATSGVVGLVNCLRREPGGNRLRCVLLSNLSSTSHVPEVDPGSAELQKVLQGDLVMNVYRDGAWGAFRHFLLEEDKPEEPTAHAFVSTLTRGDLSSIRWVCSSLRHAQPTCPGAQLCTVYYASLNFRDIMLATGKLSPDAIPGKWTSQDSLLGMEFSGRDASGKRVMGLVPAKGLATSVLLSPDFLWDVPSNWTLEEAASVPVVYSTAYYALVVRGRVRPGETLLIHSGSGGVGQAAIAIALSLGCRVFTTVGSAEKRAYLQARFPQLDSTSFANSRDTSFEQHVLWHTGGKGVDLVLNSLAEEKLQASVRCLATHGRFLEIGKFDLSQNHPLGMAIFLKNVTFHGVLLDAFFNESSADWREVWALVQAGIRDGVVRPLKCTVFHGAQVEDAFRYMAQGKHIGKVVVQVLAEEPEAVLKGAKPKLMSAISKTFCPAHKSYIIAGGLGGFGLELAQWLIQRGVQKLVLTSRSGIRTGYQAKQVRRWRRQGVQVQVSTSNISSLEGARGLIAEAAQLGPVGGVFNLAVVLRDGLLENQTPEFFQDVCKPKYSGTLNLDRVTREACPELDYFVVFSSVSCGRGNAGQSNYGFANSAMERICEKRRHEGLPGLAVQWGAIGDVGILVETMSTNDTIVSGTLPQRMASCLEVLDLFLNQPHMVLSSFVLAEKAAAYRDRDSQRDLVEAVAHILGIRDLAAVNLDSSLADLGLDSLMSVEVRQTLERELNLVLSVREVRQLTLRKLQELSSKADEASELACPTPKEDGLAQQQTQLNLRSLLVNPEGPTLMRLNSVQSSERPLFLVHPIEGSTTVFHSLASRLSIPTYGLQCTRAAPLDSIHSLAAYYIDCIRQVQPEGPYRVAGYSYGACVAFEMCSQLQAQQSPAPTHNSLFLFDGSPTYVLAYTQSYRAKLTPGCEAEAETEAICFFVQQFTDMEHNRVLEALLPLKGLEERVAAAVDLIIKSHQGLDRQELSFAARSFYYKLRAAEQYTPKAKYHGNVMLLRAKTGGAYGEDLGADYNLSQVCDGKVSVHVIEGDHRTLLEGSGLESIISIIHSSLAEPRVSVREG

SMILES	inhibition at 100 µM [%]	IC50s in the range of about 0.001 μM to about 30 μM
Cc1ccc(C(=O)N2CCC(c3ccc(CS(C)(=O)=O)cc3)CC2)cc1NS(C)(=O)=O [Example 223, N-[2-methyl-5-[4-[4-(methylsulfonylmethyl)phenyl]piperidine-1-carbonyl]phenyl]-methanesulfonamide]	74	
CCNC(=O)NCc1ccc(C2CCN(C(=O)c3ccc(C)c(NS(C)(=O)=O)c3)CC2)cc1 [Example 234, 1-ethyl-3-[[4-[1-(3-methanesulfonamido-4-methylbenzoyl)piperidin-4-yl]phenyl]methyl]urea]	78.3	
Cc1ccc(C(=O)N2CCC(c3ccc(C#N)cc3)CC2)cc1NS(=O)(=O)Cc1ccc(F)cc1F [Example 61, N-[5-[4-(4-cyanophenyl)piperidine-1-carbonyl]-2-methyl-phenyl]-1-(2,4-difluorophenyl)methanesulfonamide]	93	
CCCS(=O)(=O)Nc1cc(C(=O)N2CCC(c3ccc(C#N)cc3)CC2)ccc1C [Example 5, N-[5-[4-(4-cyanophenyl)piperidine-1-carbonyl]-2-methyl-phenyl]propane-1-sulfonamide]	92	
Cc1ccc(C(=O)N2CCC(c3ccc(CC(=O)N(C)C)cc3)CC2)cc1NS(C)(=O)=O [2-[4-[1-(3-methanesulfonamido-4-methylbenzoyl)piperidin-4-yl]phenyl]-N,N-dimethylacetamide]		do not have IC50s in the range of about 0.001 μM to about 30 μM
Cc1ccc(C(=O)N2CCC(c3ccc(C#N)cc3)CC2)cc1NS(=O)(=O)c1cccc(C(=O)N2CCOCC2)c1 [Example 97, N-[5-[4-(4-cyanophenyl)piperidine-1-carbonyl]-2-methyl-phenyl]-3-(morpholine-4-carbonyl)benzenesulfonamide]	88	
Cc1ccc(C(=O)N2CCC(c3cccc(-c4cncs4)c3)CC2)cc1NS(C)(=O)=O [N-[2-methyl-5-[4-[3-(1,3-thiazol-5-yl)phenyl]piperidine-1-carbonyl]phenyl]methanesulfonamide]		do not have IC50s in the range of about 0.001 μM to about 30 μM
N#Cc1ccc(C2CCN(C(=O)c3ccc(C#N)c(NS(=O)(=O)Cc4ccccc4)c3)CC2)cc1 [Example 196, N-[2-cyano-5-[4-(4-cyanophenyl)piperidine-1-carbonyl]phenyl]-1-phenylmethane-sulfonamide]	96	
Cc1ccc(C(=O)N2CCC(c3ccc(CNC(=O)C(C)C)cc3)CC2)cc1NS(C)(=O)=O [Example 226, N-[[4-[1-(3-methanesulfonamido-4-methylbenzoyl)piperidin-4-yl]phenyl]methyl]-2-methylpropanamide]	81	
Cc1ccc(C(=O)N2CCC(c3ccc(CNC(=O)C(C)(C)O)cc3)CC2)cc1NS(C)(=O)=O [2-hydroxy-N-[[4-[1-(3-methanesulfonamido-4-methylbenzoyl)piperidin-4-yl]phenyl]methyl]-2-methylpropanamide]		do not have IC50s in the range of about 0.001 μM to about 30 μM
Cc1ccc(C(=O)N2CCC(c3ccc(CNS(=O)(=O)N(C)C)cc3)CC2)cc1NS(C)(=O)=O [Example 242, N-[5-[4-[4-[(dimethylsulfamoylamino)methyl]phenyl]piperidine-1-carbonyl]-2-methylphenyl]methanesulfonamide]	95.7	
Cc1ccc(C(=O)N2CCC(c3ccc(C#N)cc3C)CC2)cc1NS(C)(=O)=O [N-[5-[4-(4-cyano-2-methylphenyl)piperidine-1-carbonyl]-2-methylphenyl]methanesulfonamide]		do not have IC50s in the range of about 0.001 μM to about 30 μM
Cc1ccc(C(=O)N2CCC(c3ccc(OC(F)(F)F)cc3)CC2)cc1NS(C)(=O)=O [Example 180, N-[2-methyl-5-[4-[4-(trifluoromethoxy)phenyl]piperidine-1-carbonyl]phenyl]methanesulfonamide]	96	
Cc1ccc(C(=O)N2CCC(c3ccc(C#N)cc3)CC2)cc1NS(=O)(=O)c1ccccc1C(=O)O [2-[[5-[4-(4-cyanophenyl)piperidine-1-carbonyl]-2-methylphenyl]sulfamoyl]benzoic acid]		do not have IC50s in the range of about 0.001 μM to about 30 μM
Cc1ccc(C(=O)N2CCC(c3ccc(C#N)cc3)CC2)cc1NS(=O)(=O)CCCN [Example 126, 3-amino-N-[5-[4-(4-cyanophenyl)piperidine-1-carbonyl]-2-methyl-phenyl]propane-1-sulfonamide]	87	
COC(=O)CS(=O)(=O)NCc1ccc(C2CCN(C(=O)c3ccc(C)c(NS(C)(=O)=O)c3)CC2)cc1 [Example 245, Methyl 2-[[4-[1-(3-methanesulfonamido-4-methylbenzoyl)piperidin-4-yl]phenyl]methylsulfamoyl]acetate]	104	
Cc1ccc(C(=O)N2CCC(c3ccccc3)CC2)cc1NS(C)(=O)=O [N-[2-methyl-5-(4-phenylpiperidine-1-carbonyl)phenyl]methanesulfonamide]		do not have IC50s in the range of about 0.001 μM to about 30 μM

SMILES	inhibition at 100 µM [%]	IC50s in the range of about 0.001 μM to about 30 μM
Cc1ccc(C(=O)N2CCC(c3ccc(C#N)cc3)CC2)cc1NS(=O)(=O)c1ccc(Cl)cc1 [Example 3, 4-chloro-N-[5-[4-(4-cyanophenyl)piperidine-1-carbonyl]-2-methyl-phenyl]benzenesulfonamide]	96	
Cc1ccc(C(=O)N2CCC(c3ccc(C#N)cc3)CC2)cc1NS(=O)(=O)c1cn(C)cn1 [Example 94, N-[5-[4-(4-cyanophenyl)piperidine-1-carbonyl]-2-methyl-phenyl]-1-methyl-imidazole-4-sulfonamide]	86	
Cc1ccc(C(=O)N2CCC(O)(c3ccc(C(F)(F)F)cc3)CC2)cc1NS(C)(=O)=O [Example 215, N-[5-[4-hydroxy-4-[4-(trifluoromethyl)phenyl]piperidine-1-carbonyl]-2-methylphenyl]methanesulfonamide]	56	
Cc1ccc(C(=O)N2CCC(c3ccc(S(C)(=O)=O)cc3)CC2)cc1NS(=O)(=O)Cc1ccccc1 [Example 193, N-[2-methyl-5-[4-(4-methylsulfonylphenyl)piperidine-1-carbonyl]phenyl]-1-phenyl-methanesulfonamide]	70	
Cc1ccc(C(=O)N2CCC(c3ccc(C#N)cc3)CC2)cc1NS(=O)(=O)c1cccnc1 [Example 107, N-[5-[4-(4-cyanophenyl)piperidine-1-carbonyl]-2-methyl-phenyl]pyridine-3-sulfonamide]	92	
CCC(C)S(=O)(=O)Nc1cc(C(=O)N2CCC(c3ccc(C#N)cc3)CC2)ccc1C (racemic) [Example 18, (RS)—N-[5-[4-(4-cyanophenyl)piperidine-1-carbonyl]-2-methyl-phenyl]butane-2-sulfonamide]	92	
CCS(=O)(=O)Nc1cc(C(=O)N2CCC(c3ccc(C#N)cc3)CC2)c(C)cc1C [Example 166, N-[5-[4-(4-cyanophenyl)piperidine-1-carbonyl]-2,4-dimethylphenyl]ethanesulfonamide]	96	
Cc1ccc(C(=O)N2CCC(c3ccc(C#N)cc3)CC2)cc1NS(=O)(=O)Cc1ccccc1 [Example 4, N-[5-[4-(4-cyanophenyl)piperidine-1-carbonyl]-2-methyl-phenyl]-1-phenyl-methanesulfonamide]	81	
CCC(=O)NCc1ccc(C2CCN(C(=O)c3ccc(C)c(NS(C)(=O)=O)c3)CC2)cc1 [Example 225, N—[[4-[1-(3-methanesulfonamido-4-methylbenzoyl)piperidin-4-yl]phenyl]methyl]propanamide]	89.1	
CC(=O)N1CCC(S(=O)(=O)Nc2cc(C(=O)N3CCC(c4ccc(C#N)cc4)CC3)ccc2C)CC1 [Example 118, 1-acetyl-N-[5-[4-(4-cyanophenyl)piperidine-1-carbonyl]-2-methyl-phenyl]piperidine-4-sulfonamide]	85	
Cc1ccc(C(=O)N2CCC(c3ccc(CNS(C)(=O)=O)cc3)CC2)cc1NS(C)(=O)=O [Example 163, N-[[4-[1-(3-methanesulfonamido-4-methylbenzoyl)piperidin-4-yl]phenyl]methyl]methanesulfonamide]	85	
CS(=O)(=O)Nc1ccc(F)c(C(=O)N2CCC(c3ccc(C#N)cc3)CC2)c1 [N-[3-[4-(4-cyanophenyl)piperidine-1-carbonyl]-4-fluorophenyl]methanesulfonamide]		do not have IC50s in the range of about 0.001 μM to about 30 μM
Cc1ccc(NS(=O)(=O)CCCCl)cc1C(=O)N1CCC(c2ccc(C#N)cc2)CC1 [Example 34, 3-chloro-N-[3-[4-(4-cyanophenyl)piperidine-1-carbonyl]-4-methyl-phenyl]propane-1-sulfonamide]	89	
Cc1ccc(C(=O)N2CCC(c3ccc(C#N)cc3)CC2)cc1NS(=O)(=O)Cc1ccc(S(C)(=O)=O)cc1 [Example 62, N-[5-[4-(4-cyanophenyl)piperidine-1-carbonyl]-2-methyl-phenyl]-1-(4-methylsulfonylphenyl)methanesulfonamide]	82	
Cc1ccc(C(=O)N2CCC(c3ccc(C#N)cc3)CC2)cc1NS(=O)(=O)CCC(=O)O [Example 151, 3-[[5-[4-(4-cyanophenyl)piperidine-1-carbonyl]-2-methyl-phenyl]sulfamoyl]propanoic acid]	81	
Cc1ccc(C(=O)N2CCC(c3ccc(S(=O)(=O)N(C)C)cc3)CC2)cc1NS(C)(=O)=O [4-[1-(3-methanesulfonamido-4-methylbenzoyl)piperidin-4-yl]-N,N-dimethylbenzenesulfonamide]		do not have IC50s in the range of about 0.001 μM to about 30 μM
C#Cc1ccc(C2CCN(C(=O)c3ccc(C)c(NS(C)(=O)=O)c3)CC2)cc1 [Example 172, N-[5-[4-(4-ethynylphenyl)piperidine-1-carbonyl]-2-methylphenyl]methanesulfonamide]	85	

— patent publication US20090105305A1, “Therapeutic Agents - 550” (AstraZeneca AB, priority 2006, published 2009)
